According to PMC4689404, “2-Benzazolyl-4-Piperazin-1-Ylsulfonylbenzenecarbohydroxamic Acids as Novel Selective Histone Deacetylase-6 Inhibitors with Antiproliferative Activity” (PLoS ONE, 2015):

What was measured:
Assay in all cases: NCI 60 screen, five dose
Assay type in all cases: cell-based
[1] = system: MDA-MB-468; settings: Homo sapiens, Breast Cancer, GI50 = molar concentration, read-out: Log10 GI50 (converted)
[2] = system: K-562; settings: Homo sapiens, K562, Leukemia, GI50 = molar concentration, read-out: Log10 GI50 (converted)
[3] = system: HS 578T; settings: Homo sapiens, Breast Cancer, GI50 = molar concentration, read-out: Log10 GI50 (converted)
[4] = system: OVCAR-3; settings: Homo sapiens, Ovarian Cancer, GI50 = molar concentration, read-out: Log10 GI50 (converted)
[5] = system: MOLT-4; settings: Homo sapiens, Leukemia, GI50 = molar concentration, read-out: Log10 GI50 (converted)

Row | Compound | GI50 [1] | GI50 [2] | GI50 [3] | GI50 [4] | GI50 [5]
1 | O=C(NO)c1ccc(S(=O)(=O)N2CCN(c3nc4ccccc4o3)CC2)cc1 [Compound 9c, 4-(4-Benzoxazol-2-yl-piperazin-1-sulfonyl)-N -hydroxy-benzamid] | 11 µM | 6.31 µM |  |  | 
2 | O=C(NO)c1ccc(S(=O)(=O)N2CCN(c3nc4ccccc4s3)CC2)cc1 [Compound 9d, 4-(4-Benzothiazol-2-yl-piperazin-1-sulfonyl)-N -hydroxy-benzamid] |  |  | 1.45 µM | 3.02 µM | 3.02 µM
